B1: D-amino acid oxidase (Sungouiella intermedia) (protein)
chain: MSEYVIVGSGIIGLYTGYKLLESGVPGESITVEAEFLPGDESIKYTSPYAGGNFSGITGDDPDSLKFDKHTYENLPKLQKLLGGPLCGLDMLPATEIWDNVKSKKIDSLKQYLKDYQEIEQEELPEGAKFGVKFTTWNFNCPKFLSNVQKYLLSKNVTFIRKNLTHITQAFGPATKCVFNCTGNGARFLGGVQDAKVYPTRGQVVVIKAPHINENMIRWGDNYATYIIKRPYSHDQLILGGFLQKDDWTPDTLSEQTEDILFRTTNLLPKILNQNPHGPNIEDLEIVRVVAGLRPSRHGGVRIEKEVLDGKLLIHNYGAGGYGYQSGLGMADKAVKLALGQSKL

Experiments:
D-amino acid oxidase [1] = target: T1, D-amino acid oxidase (Sungouiella intermedia, UniProt A0A1L0GHW3); assay: Substrate specificity of purified D-amino acid oxidase; type: biochemical, Candida intermedia NBRC0761; details: purified enzyme; activity to D-Phe as 100%; each substrate in place of DL-phenylalanine
Description: The activity of the D-amino acid oxidase was measured by quantifying hydrogen peroxide produced in the reaction by an enzyme method using peroxidase. Hydrogen peroxide was quantified by an enzyme method as follows. 250 μl of a chromogenic solution containing 50 mM DL-phenylalanine, 0.80 mM 4-aminoantipyrine, 1.31 mM N-ethyl-N-(2-hydroxy-3-sulfopropyl)-m-toluidine, 6 u/ml peroxidase (manufactured by TOYOBO Inc.) and 50 mM Tris-hydrochloric acid buffer (pH 8.0) was mixed with 50 μl of an appropriately diluted enzyme solution, and the mixture was reacted at 30° C. for 30 min. Absorption at 555 nm was measured, and the amount of hydrogen peroxide produced in the reaction mixture was quantified based on the analytical curve prepared in advance. The amount of the enzyme that produced 1 μmol of hydrogen peroxide in 1 minute was defined as 1 unit. In addition, protein was quantified according to a Bradford method using BSA as a standard protein. The specific activity of the purified D-amino acid oxidase was 44.8 units/mg protein (30° C.).
(§1) Moreover, the D-amino acid oxidase activity for examining the properties of the enzyme shown below was measured as follows. 250 μl of a substrate solution containing 100 mM DL-phenylalanine and 50 mM Tris-hydrochloric acid buffer (pH 8.0) was maintained at 30° C. (each temperature for determining the range of operative temperature and the optimal temperature) for 5 min, mixed with 50 μl of an appropriately diluted enzyme solution, and the mixture was reacted at 30° C. (each temperature for determining the range of operative temperature and the optimal temperature) for 5 min. 10 μl of 3N HCl was added to stop the reaction. Then, 500 μl of a chromogenic solution containing 0.80 mM 4-aminoantipyrine, 1.31 mM N-ethyl-N-(2-hydroxy-3-sulfopropyl)-m-toluidine, 6 u/ml peroxidase (manufactured by TOYOBO Inc.) and 50 mM Tris-hydrochloric acid buffer (pH 8.0), which was maintained at 30° C. for 5 min, was mixed with 100 μl of the aforementioned reaction mixture. Absorption at 555 nm was measured, and the amount of hydrogen peroxide produced in the reaction mixture was quantified based on the analytical curve prepared in advance.
The substrate specificity of the purified D-amino acid oxidase was examined. The substrate DL-phenylalanine used in the aforementioned enzyme activity assay was changed to each substrate, and the enzyme activity was measured.

D-amino acid oxidase [2] = target: T1, D-amino acid oxidase; assay: Temperature stability and pH stability (residual activity); type: physicochemical, Candida intermedia NBRC0761
Description: as §1
The temperature stability of the enzyme was measured based on the residual activity after a treatment at each temperature for 10 min.
The pH stability was examined. […]

D-amino acid oxidase [3] = target: T1, D-amino acid oxidase; assay: Range of reaction temperature and pH, optimal temperature and pH; type: biochemical, Candida intermedia NBRC0761
Description: as §1
The range of reaction temperature and the optimal temperature were examined.
The range of reaction pH and the optimal pH were examined. […] The enzyme was active at least within the examined range of pH 6-10.5, and the optimal pH was 8.5-9.5.

D-amino acid oxidase [4] = target: T1, D-amino acid oxidase; assay: Specific activity of purified D-amino acid oxidase (hydrogen peroxide quantified with peroxidase); type: biochemical, Candida intermedia NBRC0761; details: 30° C.; 1 unit = 1 μmol hydrogen peroxide in 1 minute; DL-phenylalanine, pH 8.0
Description: An enzyme solution is appropriately diluted, mixed with a chromogenic solution containing 50 mM DL-phenylalanine, 0.80 mM 4-aminoantipyrine, 1.31 mM N-ethyl-N-(2-hydroxy-3-sulfopropyl)-m-toluidine, 6 u/ml peroxidase (manufactured by TOYOBO Inc.), and 50 mM Tris-hydrochloric acid buffer (pH 8.0) at 1:5, and reacted at 30° C. for 30 min. The absorbance at 555 nm is measured, and the amount of hydrogen peroxide produced in the reaction mixture is quantified based on the analytical curve prepared in advance. In the embodiment, unless otherwise specified, this method was used to assay the D-amino acid oxidase activity.
The activity of the D-amino acid oxidase was measured by quantifying hydrogen peroxide produced in the reaction by an enzyme method using peroxidase. Hydrogen peroxide was quantified by an enzyme method as follows. […] Absorption at 555 nm was measured, and the amount of hydrogen peroxide produced in the reaction mixture was quantified based on the analytical curve prepared in advance. […] In addition, protein was quantified according to a Bradford method using BSA as a standard protein. […]

[5] = substrate: N[C@H](Cc1ccccc1)C(=O)O; assay: Measurement of Km value relative to D-Phe; type: biochemical, Candida intermedia NBRC0761; details: other: D-Phe as substrate, various substrate concentrations, reciprocal plot (FIG. 2); pH 8.0; 30.0 °C
Description: as §1
Using D-Phe as a substrate, the activity was measured at various substrate concentrations and the Km value relative to D-Phe was determined. From the results shown in FIG. 2, the Km value relative to D-Phe was about 1.7 (not less than 1.6 and not more than 1.8) mM.

Molecule | relative activity (%) (D-amino acid oxidase [1]) | further results
CSCC[C@@H](N)C(=O)O [D-Met] | 100.5 | –
N[C@H](CC(=O)O)C(=O)O [D-Asp] | 0.0 | –
NC(=O)CC[C@@H](N)C(=O)O [D-Gln] | 5.8 | –
N[C@@H](C(=O)O)c1ccc(O)c(O)c1 [D-3,4-dihydroxy-phenylglycine] | 5.7 | –
NC(=O)C[C@@H](N)C(=O)O [D-Asn] | 5.8 | –
C[C@@H](N)C(=O)O [D-Ala] | 129.1 | –
CC[C@@H](C)[C@@H](N)C(=O)O [D-Ile] | 16.6 | –
CCC[C@H](N)C(=O)O [L-Norvaline] | 0.0 | –
CCC(C(=O)O)c1ccccc1 (racemic) [DL-α-phenylbutyric acid] | 194.7 | –
C[C@H](N)C(=O)O [L-Ala] | 0.0 | –
N[C@H](Cc1ccc(F)cc1)C(=O)O [D-p-F-Phe] | 167.2 | –
NCC(=O)O [Gly] | 0.0 | –
N[C@H](CO)C(=O)O [D-Ser] | 11.3 | –
CC(C)[C@@H](N)C(=O)O [D-Val] | 27.3 | –
NCCCC[C@@H](N)C(=O)O [D-Lys] | 0.0 | –
CSCC[C@H](N)C(=O)O [L-Met] | 0.0 | –
O=C(O)[C@@H]1CCCN1 [L-Pro] | 0.0 | –
N[C@H](Cc1c[nH]cn1)C(=O)O [D-His] | 4.2 | –
NC(N)=NCCCC(N)C(=O)O [D-Arg] | 0.05 | –
C[C@H](O)[C@@H](N)C(=O)O [D-Thr] | 4.7 | –
CCCC(N)C(=O)O (racemic) [DL-Norvaline] | 93.8 | –
O=C(O)[C@H]1CCCN1 [D-Pro] | 44.3 | –
NC(CCBr)C(=O)O (racemic) [DL-2-amino-4-Br-butyric acid] | 17.2 | –
CC(C)C[C@@H](N)C(=O)O [D-Leu] | 96.7 | –
N[C@H](CCC(=O)O)C(=O)O [D-Glu] | 0.0 | –
B1 | – | pH stability (comparatively stable at) (D-amino acid oxidase [2]; residual activity after 30° C. for 16 hr at each pH (FIG. 6)): 7.8-8.7 pH; temperature stability (stable at) (D-amino acid oxidase [2]; residual activity after treatment at each temperature for 10 min (FIG. 5)): ≤ 40 °C; optimal pH (D-amino acid oxidase [3]; FIG. 4): 8.5-9.5 pH; range of reaction temperature (highly active) (D-amino acid oxidase [3]; examined range, activity at 30° C. as 100% (FIG. 3)): 20-60 °C; range of reaction pH (active) (D-amino acid oxidase [3]; examined range, activity at pH 8.0 as 100% (FIG. 4)): 6-10.5 pH; specific activity (D-amino acid oxidase [4]): 44.8 units/mg protein; Km [5]: 1700 µM

Source: patent publication US8227228B2, “D-amino acid oxidase, and method for production of L-amino acid, 2-oxo acid, or cyclic imine” (priority 2005, dated 2012)
